Data: PubChem BioAssay (NCI)
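96-well plates; 48 h exposure; 5 concentrations. Endpoints by linear interpolation between flanking doses. Not reached: highest tested concentration assigned. Definition used: TGI = concentration required for complete inhibition of growth.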

Tests used:
Test in all cases: NCI-60 cell line screen, 48 h
CAKI-1 renal = test system: CAKI-1 renal
DMS 114 small cell lung = test system: DMS 114 small cell lung
DMS 273 small cell lung = test system: DMS 273 small cell lung
HOP-62 NSCLC = test system: HOP-62 NSCLC
HOP-92 NSCLC = test system: HOP-92 NSCLC
M19-MEL melanoma = test system: M19-MEL melanoma
MALME-3M melanoma = test system: MALME-3M melanoma
OVCAR-8 ovarian = test system: OVCAR-8 ovarian
SNB-78 CNS = test system: SNB-78 CNS
UO-31 renal = test system: UO-31 renal
LOX IMVI melanoma = test system: LOX IMVI melanoma
RXF 393 renal = test system: RXF 393 renal

Measured: TGI

CC(=O)c1ccc(OCC(O)CO)cc1 (stereo not drawn)
not listed: LOX IMVI melanoma | RXF 393 renal
> 100 µM: all other assays above

O=C(c1ccccc1)N1C2CCC1C(C(F)(F)F)=C2C(F)(F)F
> 100 µM: all assays above

CNCc1cc(OC)ccc1-c1ccc(OC)c(OC)c1OC
> 100 µM: all assays above

CC1C[C@H](C)CC(C(O)CC2CC(=O)N(Cc3ccccc3)C(=O)C2)C1O (stereo partly drawn)
> 100 µM: all assays above

COc1ccc(C2CC(c3cc(C)ccc3O)=NC(N)=N2)cc1 (stereo not drawn)
> 100 µM: all assays above
